Test results as given in PubChem BioAssay AID2060912 (Molecular Pharmacology Branch, DTP, NCI, 2025).

Tested on: HUVEC/MSC spheroids viability
Assay: Human HUVEC/MSC cell line growth inhibition [KRAS2];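 for viability, T/C: percent of DMSO vehicle control luminescence so 100% = untreated viability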
Conditions: for IC50: curve of first compound; for viability, T/C: stronger effect = lower value
How it was run: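 Spheroids of human HUVEC plus MSCs, without tumor cells, were treated with single agents and combinations. Each drug was tested in half-log steps down from near its clinical Cmax, or from 10 microM when Cmax was unknown. HUVEC and hMSC were used at passage </=5.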

[1] = second compound 0.00949 µM, first compound 0.0316 µM
[2] = second compound 0.00949 µM, first compound 0.1 µM
[3] = second compound 0.00949 µM, first compound 0.316 µM
[4] = second compound 0.00949 µM, first compound 1 µM
[5] = second compound 0.00949 µM, first compound 3.16 µM
[6] = second compound 0.00949 µM, first compound 10 µM
[7] = second compound 0.03 µM, first compound 0.0316 µM
[8] = second compound 0.03 µM, first compound 0.1 µM
[9] = second compound 0.03 µM, first compound 0.316 µM
[10] = second compound 0.03 µM, first compound 1 µM
[11] = second compound 0.03 µM, first compound 3.16 µM
[12] = second compound 0.03 µM, first compound 10 µM
[13] = second compound 0.0949 µM, first compound 0.0316 µM
[14] = second compound 0.0949 µM, first compound 0.1 µM
[15] = second compound 0.0949 µM, first compound 0.316 µM
[16] = second compound 0.0949 µM, first compound 1 µM
[17] = second compound 0.0949 µM, first compound 3.16 µM
[18] = second compound 0.0949 µM, first compound 10 µM
[19] = second compound 0.3 µM, first compound 0.0316 µM
[20] = second compound 0.3 µM, first compound 0.1 µM
[21] = second compound 0.3 µM, first compound 0.316 µM
[22] = second compound 0.3 µM, first compound 1 µM
[23] = second compound 0.3 µM, first compound 3.16 µM
[24] = second compound 0.3 µM, first compound 10 µM
[25] = second compound 0.949 µM, first compound 0.0316 µM
[26] = second compound 0.949 µM, first compound 0.1 µM
[27] = second compound 0.949 µM, first compound 0.316 µM
[28] = second compound 0.949 µM, first compound 1 µM
[29] = second compound 0.949 µM, first compound 3.16 µM
[30] = second compound 0.949 µM, first compound 10 µM
[31] = second compound 3 µM, first compound 0.0316 µM
[32] = second compound 3 µM, first compound 0.1 µM
[33] = second compound 3 µM, first compound 0.316 µM
[34] = second compound 3 µM, first compound 1 µM
[35] = second compound 3 µM, first compound 3.16 µM
[36] = second compound 3 µM, first compound 10 µM

`CC1OCC2(CCN(c3cnc(Sc4ccnc(N)c4Cl)c(N)n3)CC2)C1N` (centres undefined) + C=CC(=O)N1CCN(c2nc(OCC3CCCN3C)nc3c2CCN(c2cccc4cccc(C)c24)C3)CC1CC#N was tested, and the IC50 (second compound 0.00949 µM) was over 10000 nM, the IC50 (second compound 0.03 µM) was over 10000 nM and the IC50 (second compound 0.0949 µM) was over 10000 nM. The IC50 (second compound 0.3 µM) was over 10000 nM, the IC50 (second compound 0.949 µM) was 5360 nM and the IC50 (second compound 3 µM) was 387 nM. The viability, T/C [1] was 112%, the viability, T/C [2] was 102% and the viability, T/C [3] was 99.9%. For the same molecule, the viability, T/C [4] was 82.3%, the viability, T/C [5] was 71.1% and the viability, T/C [6] was 73.6%. It also gave a viability, T/C [7] of 109%, a viability, T/C [8] of 116% and a viability, T/C [9] of 89.8%. It also gave a viability, T/C [10] of 87.3%, a viability, T/C [11] of 66% and a viability, T/C [12] of 67.9%. For the same molecule, the viability, T/C [13] was 98.5%, the viability, T/C [14] was 96.4% and the viability, T/C [15] was 90%. For the same molecule, the viability, T/C [16] was 79.5%, the viability, T/C [17] was 74.1% and the viability, T/C [18] was 66.5%. It also gave a viability, T/C [19] of 86.7%, a viability, T/C [20] of 90.7% and a viability, T/C [21] of 89.4%. It also gave a viability, T/C [22] of 69.1%, a viability, T/C [23] of 72.9% and a viability, T/C [24] of 56.1%. For the same molecule, the viability, T/C [25] was 63%, the viability, T/C [26] was 79.5% and the viability, T/C [27] was 83.2%. It also gave a viability, T/C [28] of 71.8%, a viability, T/C [29] of 60.4% and a viability, T/C [30] of 37.9%. For the same molecule, the viability, T/C [31] was 55.4%, the viability, T/C [32] was 67.6% and the viability, T/C [33] was 48%. The viability, T/C [34] was 35.7%, the viability, T/C [35] was 4.99% and the viability, T/C [36] was 0.43%.
`Cn1nccc1Nc1nccc(-c2cc3c(s2)C(C)(C)N(CCN2CCOCC2)C3=O)n1` + C=CC(=O)N1CCN(c2nc(OCC3CCCN3C)nc3c2CCN(c2cccc4cccc(C)c24)C3)CC1CC#N showed an IC50 (second compound 0.00949 µM) of 2880 nM, an IC50 (second compound 0.03 µM) of 3050 nM and an IC50 (second compound 0.0949 µM) of 2890 nM. The IC50 (second compound 0.3 µM) was 3020 nM, the IC50 (second compound 0.949 µM) was 2420 nM and the IC50 (second compound 3 µM) was 1130 nM. The viability, T/C [1] was 81.1%, the viability, T/C [2] was 103% and the viability, T/C [3] was 124%. For the same molecule, the viability, T/C [4] was 109%, the viability, T/C [5] was 45.1% and the viability, T/C [6] was 6.48%. It also gave a viability, T/C [7] of 85.3%, a viability, T/C [8] of 103% and a viability, T/C [9] of 111%. It also gave a viability, T/C [10] of 96.2%, a viability, T/C [11] of 48.6% and a viability, T/C [12] of 5.51%. The viability, T/C [13] was 93.1%, the viability, T/C [14] was 119% and the viability, T/C [15] was 106%. It also gave a viability, T/C [16] of 86.1%, a viability, T/C [17] of 47.6% and a viability, T/C [18] of 9.65%. For the same molecule, the viability, T/C [19] was 77.7%, the viability, T/C [20] was 85.8% and the viability, T/C [21] was 99.6%. It also gave a viability, T/C [22] of 91%, a viability, T/C [23] of 48.5% and a viability, T/C [24] of 3.83%. The viability, T/C [25] was 76.7%, the viability, T/C [26] was 91.2% and the viability, T/C [27] was 93.9%. For the same molecule, the viability, T/C [28] was 92.1%, the viability, T/C [29] was 38.4% and the viability, T/C [30] was 1.39%. For the same molecule, the viability, T/C [31] was 90.6%, the viability, T/C [32] was 107% and the viability, T/C [33] was 93.8%. For the same molecule, the viability, T/C [34] was 55.7%, the viability, T/C [35] was 2.04% and the viability, T/C [36] was 0.32%.
